Measured values: PubChem BioAssay AID1963962 (Molecular Pharmacology Branch, DTP, NCI, 2024)
Values belong to the molecule of their own block, whether it stands above or below them.

Test system: 967376-340-R-J2-PDC multicell spheroid viability
Assay: Anticancer human tumor 967376-340-R-J2-PDC patient-derived colon adenocarcinoma cell line growth inhibition [PI3K]
Details: for IC50: curve of first compound; for viability, T/C: stronger effect = lower value
In short: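 Three cell types, namely tumor cells, endothelial cells and mesenchymal stem cells, formed each spheroid. Combinations with four PI3K inhibitors were screened at clinically achievable concentrations decreasing by half-log, and spheroid viability was recorded.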

[1] = second compound 0.0316 µM, first compound 0.0316 µM
[2] = second compound 0.0316 µM, first compound 0.1 µM
[3] = second compound 0.0316 µM, first compound 0.316 µM
[4] = second compound 0.0316 µM, first compound 1 µM
[5] = second compound 0.0316 µM, first compound 3.16 µM
[6] = second compound 0.0316 µM, first compound 10 µM
[7] = second compound 0.1 µM, first compound 0.0316 µM
[8] = second compound 0.1 µM, first compound 0.1 µM
[9] = second compound 0.1 µM, first compound 0.316 µM
[10] = second compound 0.1 µM, first compound 1 µM
[11] = second compound 0.1 µM, first compound 3.16 µM
[12] = second compound 0.1 µM, first compound 10 µM
[13] = second compound 0.316 µM, first compound 0.0316 µM
[14] = second compound 0.316 µM, first compound 0.1 µM
[15] = second compound 0.316 µM, first compound 0.316 µM
[16] = second compound 0.316 µM, first compound 1 µM
[17] = second compound 0.316 µM, first compound 3.16 µM
[18] = second compound 0.316 µM, first compound 10 µM
[19] = second compound 1 µM, first compound 0.0316 µM
[20] = second compound 1 µM, first compound 0.1 µM
[21] = second compound 1 µM, first compound 0.316 µM
[22] = second compound 1 µM, first compound 1 µM
[23] = second compound 1 µM, first compound 3.16 µM
[24] = second compound 1 µM, first compound 10 µM
[25] = second compound 3.16 µM, first compound 0.0316 µM
[26] = second compound 3.16 µM, first compound 0.1 µM
[27] = second compound 3.16 µM, first compound 0.316 µM
[28] = second compound 3.16 µM, first compound 1 µM
[29] = second compound 3.16 µM, first compound 3.16 µM
[30] = second compound 3.16 µM, first compound 10 µM
[31] = second compound 10 µM, first compound 0.0316 µM
[32] = second compound 10 µM, first compound 0.1 µM
[33] = second compound 10 µM, first compound 0.316 µM
[34] = second compound 10 µM, first compound 1 µM
[35] = second compound 10 µM, first compound 3.16 µM
[36] = second compound 10 µM, first compound 10 µM
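Further: spheroids exposed to agents for 7 days before read-out.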
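Wherever viability, T/C is given: luminescence used as surrogate of cell viability.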

Compound: Cn1ncc(Cl)c1-c1cc(C(=O)NC(CN)Cc2cccc(F)c2)sc1Cl (stereo unspecified) + COc1c(OCCCN2CCOCC2)ccc2c3n(c(=NC(=O)c4cnc(N)nc4)nc12)CCN3
- IC50 (second compound 0.00316 µM): > 10 µM
- IC50 (second compound 0.01 µM): > 10 µM
- IC50 (second compound 0.0316 µM): 4.96 µM
- IC50 (second compound 0.1 µM): > 10 µM
- IC50 (second compound 0.316 µM): 0.149 µM
- IC50 (second compound 1 µM): < 0.0316 µM
- viability, T/C (second compound 0.00316 µM, first compound 0.0316 µM): 93.7%
- viability, T/C (second compound 0.00316 µM, first compound 0.1 µM): 107%
- viability, T/C (second compound 0.00316 µM, first compound 0.316 µM): 73.8%
- viability, T/C (second compound 0.00316 µM, first compound 1 µM): 94.8%
- viability, T/C (second compound 0.00316 µM, first compound 3.16 µM): 84.8%
- viability, T/C (second compound 0.00316 µM, first compound 10 µM): 60.2%
- viability, T/C (second compound 0.01 µM, first compound 0.0316 µM): 88.5%
- viability, T/C (second compound 0.01 µM, first compound 0.1 µM): 106%
- viability, T/C (second compound 0.01 µM, first compound 0.316 µM): 76.2%
- viability, T/C (second compound 0.01 µM, first compound 1 µM): 84.2%
- viability, T/C (second compound 0.01 µM, first compound 3.16 µM): 67.3%
- viability, T/C (second compound 0.01 µM, first compound 10 µM): 64.7%
- viability, T/C [1]: 84.1%
- viability, T/C [2]: 80.7%
- viability, T/C [3]: 70.5%
- viability, T/C [4]: 80.5%
- viability, T/C [5]: 57.8%
- viability, T/C [6]: 37.8%
- viability, T/C [7]: 76.4%
- viability, T/C [8]: 59.3%
- viability, T/C [9]: 77.9%
- viability, T/C [10]: 67.8%
- viability, T/C [11]: 52.8%
- viability, T/C [12]: 56.5%
- viability, T/C [13]: 59.1%
- viability, T/C [14]: 55.3%
- viability, T/C [15]: 45.1%
- viability, T/C [16]: 36%
- viability, T/C [17]: 52.5%
- viability, T/C [18]: 36.6%
- viability, T/C [19]: 40.4%
- viability, T/C [20]: 46.5%
- viability, T/C [21]: 30.9%
- viability, T/C [22]: 39.7%
- viability, T/C [23]: 31.4%
- viability, T/C [24]: 24.4%

Compound: CC(Cn1ccc(-c2ccc(C#N)c(Cl)c2)n1)NC(=O)c1cc(C(C)O)[nH]n1 (stereo unspecified) + CC(Nc1ncnc2nc[nH]c12)c1cc2cccc(Cl)c2c(=O)n1-c1ccccc1
- IC50 (second compound 0.0316 µM): > 10 µM
- IC50 (second compound 0.1 µM): > 10 µM
- IC50 (second compound 0.316 µM): > 10 µM
- IC50 (second compound 1 µM): > 10 µM
- IC50 (second compound 3.16 µM): > 10 µM
- IC50 (second compound 10 µM): > 10 µM
- viability, T/C [1]: 95.7%
- viability, T/C [2]: 87.5%
- viability, T/C [3]: 89.4%
- viability, T/C [4]: 110%
- viability, T/C [5]: 87.5%
- viability, T/C [6]: 91.8%
- viability, T/C [7]: 117%
- viability, T/C [8]: 102%
- viability, T/C [9]: 104%
- viability, T/C [10]: 94.3%
- viability, T/C [11]: 81.8%
- viability, T/C [12]: 85.6%
- viability, T/C [13]: 112%
- viability, T/C [14]: 97.3%
- viability, T/C [15]: 86.7%
- viability, T/C [16]: 87.5%
- viability, T/C [17]: 89%
- viability, T/C [18]: 78.6%
- viability, T/C [19]: 107%
- viability, T/C [20]: 83.3%
- viability, T/C [21]: 91.9%
- viability, T/C [22]: 83.8%
- viability, T/C [23]: 83.9%
- viability, T/C [24]: 82.4%
- viability, T/C [25]: 95.4%
- viability, T/C [26]: 103%
- viability, T/C [27]: 91.5%
- viability, T/C [28]: 87.5%
- viability, T/C [29]: 69.2%
- viability, T/C [30]: 92.5%
- viability, T/C [31]: 91.5%
- viability, T/C [32]: 88.6%
- viability, T/C [33]: 90%
- viability, T/C [34]: 103%
- viability, T/C [35]: 83.7%
- viability, T/C [36]: 80.7%

Compound: Cn1cnc2c(F)c(Nc3ccc(Br)cc3Cl)c(C(=O)NOCCO)cc21
- viability, T/C (compound 0.00949 µM): 89.9% [middle of 4 runs]
- viability, T/C (compound 0.03 µM): 97.7% [middle of 4 runs]
- viability, T/C (compound 0.0949 µM): 87.6% [middle of 4 runs]

The next lines start with results.

- IC50 (second compound 0.00316 µM): 0.87 µM
- IC50 (second compound 0.01 µM): 0.564 µM
- IC50 (second compound 0.0316 µM): 0.461 µM
- IC50 (second compound 0.1 µM): 0.301 µM
- IC50 (second compound 0.316 µM): 0.0157 µM
- IC50 (second compound 1 µM): < 0.00949 µM
Compound: Cn1cnc2c(F)c(Nc3ccc(Br)cc3Cl)c(C(=O)NOCCO)cc21 + CC(Nc1ccc2c(c1)OCCn1cc(N3C(=O)OCC3C(F)F)nc1-2)C(N)=O
- viability, T/C (second compound 0.00316 µM, first compound 0.00949 µM): 91.2%
- viability, T/C (second compound 0.00316 µM, first compound 0.03 µM): 92.1%
- viability, T/C (second compound 0.00316 µM, first compound 0.0949 µM): 92.5%
- viability, T/C (second compound 0.00316 µM, first compound 0.3 µM): 67.9%
- viability, T/C (second compound 0.00316 µM, first compound 0.949 µM): 50.5%
- viability, T/C (second compound 0.00316 µM, first compound 3 µM): 22.7%
- viability, T/C (second compound 0.01 µM, first compound 0.00949 µM): 96%
- viability, T/C (second compound 0.01 µM, first compound 0.03 µM): 94%
- viability, T/C (second compound 0.01 µM, first compound 0.0949 µM): 82.2%
- viability, T/C (second compound 0.01 µM, first compound 0.3 µM): 72.2%
- viability, T/C (second compound 0.01 µM, first compound 0.949 µM): 30.3%
- viability, T/C (second compound 0.01 µM, first compound 3 µM): 31.6%
- viability, T/C (second compound 0.0316 µM, first compound 0.00949 µM): 81.8%
- viability, T/C (second compound 0.0316 µM, first compound 0.03 µM): 83.2%
- viability, T/C (second compound 0.0316 µM, first compound 0.0949 µM): 58.3%
- viability, T/C (second compound 0.0316 µM, first compound 0.3 µM): 55.5%
- viability, T/C (second compound 0.0316 µM, first compound 0.949 µM): 46.6%
- viability, T/C (second compound 0.0316 µM, first compound 3 µM): 20.1%
- viability, T/C (second compound 0.1 µM, first compound 0.00949 µM): 66.2%
- viability, T/C (second compound 0.1 µM, first compound 0.03 µM): 70.8%
- viability, T/C (second compound 0.1 µM, first compound 0.0949 µM): 67.8%
- viability, T/C (second compound 0.1 µM, first compound 0.3 µM): 49.5%
- viability, T/C (second compound 0.1 µM, first compound 0.949 µM): 18.7%
- viability, T/C (second compound 0.1 µM, first compound 3 µM): 8.2%
- viability, T/C (second compound 0.316 µM, first compound 0.00949 µM): 48.2%
- viability, T/C (second compound 0.316 µM, first compound 0.03 µM): 52.4%
- viability, T/C (second compound 0.316 µM, first compound 0.0949 µM): 44.1%
- viability, T/C (second compound 0.316 µM, first compound 0.3 µM): 27.8%
- viability, T/C (second compound 0.316 µM, first compound 0.949 µM): 23.7%
- viability, T/C (second compound 0.316 µM, first compound 3 µM): 6.33%
- viability, T/C (second compound 1 µM, first compound 0.00949 µM): 45.7%
- viability, T/C (second compound 1 µM, first compound 0.03 µM): 51%
- viability, T/C (second compound 1 µM, first compound 0.0949 µM): 31.3%
- viability, T/C (second compound 1 µM, first compound 0.3 µM): 24.6%
- viability, T/C (second compound 1 µM, first compound 0.949 µM): 9.79%
- viability, T/C (second compound 1 µM, first compound 3 µM): 4.86%

- IC50 (second compound 0.0316 µM): > 10 µM
- IC50 (second compound 0.1 µM): > 10 µM
- IC50 (second compound 0.316 µM): > 10 µM
- IC50 (second compound 1 µM): > 10 µM
- IC50 (second compound 3.16 µM): > 10 µM
- IC50 (second compound 10 µM): > 10 µM
Compound: CNC(=O)c1ccc(N2C(=S)N(c3ccc(C#N)c(C(F)(F)F)c3)C(=O)C2(C)C)cc1F + CC(Nc1ncnc2nc[nH]c12)c1cc2cccc(Cl)c2c(=O)n1-c1ccccc1
- viability, T/C [1]: 140%
- viability, T/C [2]: 88.7%
- viability, T/C [3]: 92%
- viability, T/C [4]: 101%
- viability, T/C [5]: 134%
- viability, T/C [6]: 88.3%
- viability, T/C [7]: 109%
- viability, T/C [8]: 109%
- viability, T/C [9]: 94.2%
- viability, T/C [10]: 104%
- viability, T/C [11]: 99.3%
- viability, T/C [12]: 73.1%
- viability, T/C [13]: 89.6%
- viability, T/C [14]: 104%
- viability, T/C [15]: 82.2%
- viability, T/C [16]: 92%
- viability, T/C [17]: 106%
- viability, T/C [18]: 105%
- viability, T/C [19]: 81.4%
- viability, T/C [20]: 80.3%
- viability, T/C [21]: 72.3%
- viability, T/C [22]: 86.1%
- viability, T/C [23]: 113%
- viability, T/C [24]: 88.5%
- viability, T/C [25]: 78.5%
- viability, T/C [26]: 89%
- viability, T/C [27]: 82%
- viability, T/C [28]: 80.1%
- viability, T/C [29]: 102%
- viability, T/C [30]: 87.5%
- viability, T/C [31]: 63.9%
- viability, T/C [32]: 83.7%
- viability, T/C [33]: 70%
- viability, T/C [34]: 70.6%
- viability, T/C [35]: 92.3%
- viability, T/C [36]: 77.4%
